{"source": "patent US3994925A", "about": "“Salt of the silymarin group with aminopolyhydroxy alcohols” (Dr. Madaus & Co., priority 1973, dated 1976)", "test_system": "proseodymium nitrate liver damage", "details": "serum, 72 hours after 14 mg/kg praseodymnitrate i.v.; SMG1 140.5 mg/kg i.v. three days, MG1 40.5 mg/kg", "description": "The liver-protectiveeffect of the SMG1 was tested on white rats, in that experimentally produced liver damage was antagonized by SMG1 treatment. The rats were injected with the SMG1- or MG1-dosages in 5 ml 0.9% NaCl solution, to which 4% of PVP (M.W. about 10,000) was added per kg of body weight. A dosage of 140.5 mg/kg SMG1 corresponds to 100 mg Silymarin and 40.5 mg 1-methylamino-glucose. When the test animals received 140.5 mg/kg SMG1, the control animals were treated with the equivalent dosage of 1-methylamino glucose, i.e. 40.5 mg/kg.\nIn another series of tests, antagonization of proseodymium nitrate liver damage by SMG1, measured by the reaction of the serum enzyme glutamate-oxalacetate-transaminase (GOT), glutamate-pyruvate-transaminase (GPT), sorbital-dehydrogenase (SDH) and alkaline phosphatases (AP), was employed as a measure of efficacy of the instant materials. […] The test animals, male Wistar rats weighing approximately 200 g, were treated for three days with 140.5 mg/kg SMG1 i.v. On the first testing day, all rats were damaged i.v. with 14 mg/kg praseodymnitrate one hour after the SMG1- or MG1- injection."}
{"substance": "1-methylamino glucose [1-methylamino-glucose]", "values": [{"measurement": "AP (alkaline phosphatase)", "result": 168.0, "unit": "mU/ml"}, {"measurement": "GOT", "result": 360.6, "unit": "mU/ml"}, {"measurement": "GPT", "result": 118.4, "unit": "mU/ml"}, {"measurement": "SDH", "result": 32.0, "unit": "mU/ml"}]}
